Data published in PMC3827244, “An Ultrasensitive High Throughput Screen for DNA Methyltransferase 1-Targeted Molecular Probes” (PLoS ONE, 2013).
Where two headings read alike, the source gives them in different places.

Key:
[1] = target: T1, DNMT1 (amino acids 621–1616) (Homo sapiens, UniProt P26358); assay: Validation of HTS hits, endonuclease-coupled DNA methylation assay; format: biochemical; set-up: Percent Activity: concentration or dose not given beside the values; conditions: for vo (initial velocity): first 12 minutes of GlaI corrected triplicate reaction traces; for Percent Activity: from initial velocity compared to DMSO control; for Normalized RFU: normalized to DMSO control (100) and GlaI control without DNMT1 (0); for RFU: relative fluorescence after 25-minute incubation at 37 °C, 10.9 µM test compound, three replicates
T1 construct: RFTS-lacking DNMT1, amino acids 621–1616; made in house
T1 sequence (P26358 621-1616): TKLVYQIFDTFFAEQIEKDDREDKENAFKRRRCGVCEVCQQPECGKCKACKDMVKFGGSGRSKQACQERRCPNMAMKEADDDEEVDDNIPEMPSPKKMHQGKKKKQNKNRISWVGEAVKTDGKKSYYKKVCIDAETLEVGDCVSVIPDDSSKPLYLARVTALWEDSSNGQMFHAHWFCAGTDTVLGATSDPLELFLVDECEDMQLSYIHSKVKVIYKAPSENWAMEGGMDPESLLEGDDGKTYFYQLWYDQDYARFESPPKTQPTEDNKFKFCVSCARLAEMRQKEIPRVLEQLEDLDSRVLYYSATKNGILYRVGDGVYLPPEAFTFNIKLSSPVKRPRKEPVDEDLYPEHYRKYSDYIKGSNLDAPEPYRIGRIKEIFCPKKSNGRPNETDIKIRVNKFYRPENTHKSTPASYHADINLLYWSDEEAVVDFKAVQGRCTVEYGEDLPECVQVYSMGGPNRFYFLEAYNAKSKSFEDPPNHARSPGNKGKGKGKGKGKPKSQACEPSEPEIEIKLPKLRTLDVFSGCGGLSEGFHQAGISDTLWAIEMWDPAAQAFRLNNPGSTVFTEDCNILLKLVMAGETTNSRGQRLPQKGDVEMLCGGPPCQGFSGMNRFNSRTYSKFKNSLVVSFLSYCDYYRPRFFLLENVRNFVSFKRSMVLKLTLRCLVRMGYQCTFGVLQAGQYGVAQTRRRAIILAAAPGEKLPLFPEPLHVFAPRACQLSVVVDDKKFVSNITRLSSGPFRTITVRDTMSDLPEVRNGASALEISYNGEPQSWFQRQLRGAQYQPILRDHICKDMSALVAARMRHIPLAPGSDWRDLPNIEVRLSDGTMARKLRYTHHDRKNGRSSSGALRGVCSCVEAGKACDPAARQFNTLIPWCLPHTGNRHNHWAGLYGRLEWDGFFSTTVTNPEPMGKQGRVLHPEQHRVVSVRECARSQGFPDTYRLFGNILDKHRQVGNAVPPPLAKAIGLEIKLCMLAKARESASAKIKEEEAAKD
Method: DNMT activity was measured at 37°C using a fluorogenic DNA methylation assay. In short, a hemi-methylated hairpin oligonucleotide with a 5′ fluorophore and a 3′ quencher is methylated by addition of a DNMT and the methyl-donating co-factor, S-adenosyl methionine (SAM, HPLC-purified from Sigma). The fully methylated product is a substrate for the restriction endonuclease GlaI (Sibenzyme), which cleaves the oligonucleotide, releasing the fluorophore from the quencher and generating fluorescence. The oligonucleotide substrate (5′-FAM–[…]m[…]mCGmCATAGG-3′-Iowa Black, in which mC denotes 5-methyldeoxycytidylate residues), termed 8006, was synthesized by Integrated DNA Technologies, Coralville, IA. 96 well assays were performed in Co-Star black half-area plates and read in a Biotek Synergy Neo plate reader. 384 well assays were performed in Nunc flat-bottomed black plates and read in a PerkinElmer EnVision plate reader. FAM fluorescence was measured using excitation and emission wavelengths of 485 nm and 520 nm, respectively.
HTS against the Spectrum compound collection (Microsource, Gaylordsville, CT) was performed in eight 384 well plates. Using a Multiflo dispenser (Biotek), 75 µl of assay buffer (10.8 mM Tris-HCl pH 7.5, 1.08 mM MgCl2, 1.08 mM DTT, 108 mM potassium glutamate, 0.108 mg/ml BSA, 10.8 µM SAM, 21.6 nM oligonucleotide 8006, 5.4% glycerol) was dispensed into each well. 1 µl of each compound at 880 µM in DMSO (columns 3–22) or DMSO (columns 1, 2, 23 and 24) was added to assay plates using a Microlab Star liquid handling robot (Hamilton) and the plate was incubated at 37°C for 10 minutes. Following this warming step, 5 µl enzyme solution (either a DNMT1-containing solution of 20 mM Tris-HCl, pH 7.5, 300 mM NaCl, 2 mM DTT, 49 nM DNMT1 (amino acids 621–1616), 0.08 U/µl GlaI, 30% glycerol to columns 2–23 or a GlaI control solution of 20 mM Tris-HCl, pH 7.5, 300 mM NaCl, 2 mM DTT, 0.08 U/µl GlaI, 30% glycerol to columns 1 and 24) was added and the plate was again incubated at 37°C for 25 minutes. […] Each 384 well plate contained two columns of negative (n) and positive (p) controls for inhibitor activity. Columns 2 and 23 were the n controls with DMSO without test compound. Columns 1 and 24 were the p controls without DNMT1. Thus, 320 compounds were assayed per 384 well plate in columns 3–22.
Data across the screen were normalized to the p (0% DNMT1 activity) and n (100% DNMT1 activity) controls on each plate. […] Validation assays (81 µl total volume, identical buffer conditions to those used in the HTS screen) were performed in triplicate in 96 well plates with FAM fluorescence measured over the course of 1 hour. A control containing GlaI in the absence of DNMT1 was subtracted from each assay condition. Corrected assay traces were plotted and compared to DMSO-containing control traces in Prism (GraphPad Software, Inc).

GlaI = GlaI counterscreen; format: biochemical; conditions: 11 µM test compound; for Initial Velocity: 5 nM oligonucleotide 8007, 0.2 U GlaI; for Percent Activity: compared to DMSO
Method: GlaI inhibitors were identified and excluded using a fluorescence-based assay. Duplicate assays (80 µl) were conducted in 96 well plates. Assays contained 10 mM Tris-HCl pH 7.5, 100 mM potassium glutamate, 1 mM MgCl2, 1 mM DTT, 0.1 mg/mL BSA, 5% glycerol, 5 nM oligonucleotide 8007 (5′-FAM-CCTATGmCGm[…]mCGmCATAGG-3′-Iowa Black, where mC denotes 5-methyldeoxycytidylate residues, Integrated DNA Technologies, Coralville, IA), 0.2 U GlaI, 11 µM test compound and 1.2% DMSO. Reactions were initiated by the addition of GlaI. Cleavage of the oligonucleotide releases the 5′ FAM fluorophore from the 3′ Iowa Black quencher and generates fluorescence. A control reaction in the absence of GlaI was subtracted from each assay condition to account for background fluorescence of the internally quenched substrate. Corrected time courses were fitted in Prism.

[2] = target: T1, DNMT1 (amino acids 621–1616); assay: Detergent test, endonuclease-coupled DNA methylation assay; format: biochemical; conditions: 5 µM compound
Text: The effect of detergent on observed DNMT1 inhibition was examined using the endonuclease-coupled DNA methylation assay. […] A control containing GlaI in the absence of DNMT1 was subtracted from each assay condition. Corrected assay traces were fitted in Prism.

M.SssI DNMT = target: T2, M.SssI DNMT (Spiroplasma monobiae, UniProt P15840); assay: Compound selectivity, endonuclease-coupled DNA methylation assay; format: biochemical, bacterial; conditions: 1.25 h; 20 µM inhibitor, 20 nM methyltransferase, 0.25 mM SAM; read-out: Percent activity, M.SssI DNMT
T2 construct: purchased New England Biolabs
T2 sequence (P15840 whole entry): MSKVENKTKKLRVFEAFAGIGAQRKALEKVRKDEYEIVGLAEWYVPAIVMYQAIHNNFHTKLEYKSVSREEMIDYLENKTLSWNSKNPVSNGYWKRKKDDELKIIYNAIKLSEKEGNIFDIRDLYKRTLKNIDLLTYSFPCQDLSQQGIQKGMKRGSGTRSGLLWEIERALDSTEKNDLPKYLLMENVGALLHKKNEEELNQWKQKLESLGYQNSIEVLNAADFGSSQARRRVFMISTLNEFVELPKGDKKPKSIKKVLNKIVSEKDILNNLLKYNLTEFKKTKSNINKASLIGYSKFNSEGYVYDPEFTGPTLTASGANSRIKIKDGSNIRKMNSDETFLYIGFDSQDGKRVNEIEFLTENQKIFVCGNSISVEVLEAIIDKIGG
Method: After identifying direct inhibitors of DNMT1 lacking the RFTS domain, inhibitor selectivity was assessed by examining inhibition of RFTS-containing DNMT1 (amino acids 351–1616), CD-DNMT3A/DNMT3L complex, and the bacterial cytosine methyltransferase from M. SssI (New England Biolabs) using the endonuclease-coupled DNA methylation assay. Triplicate assays (100 µl) containing 0.25 mM SAM, 0.2 µM oligonucleotide 8006, 0.8 U GlaI, 20 nM methyltransferase, 20 µM inhibitor and 1% DMSO were conducted in 96 well plates. Following enzyme addition, assay plates were incubated at 37°C for 75 min and fluorescence was measured in a BioTek Neo plate reader. A control containing only GlaI was subtracted from each assay. […] Percent activity was determined by comparing product formation to a DMSO containing control assay.

[3] = target: T1, DNMT1 (amino acids 621–1616); assay: Differential scanning fluorimetry (DSF) assay; format: binding; conditions: 100 µM compound; for Tm: 2 µM DNMT1, no DNA or SAM, DMSO 46.5 ± 0.1; for ∆Tm: shift versus DMSO control
Method: DSF [32] was used to assess the ability of the validated inhibitors to bind directly to DNMT1 in the absence of DNA and SAM and alter the observed melting temperature (Tm). Assays (25 µl) were conducted in triplicate in a Bio-Rad C1000 Thermal Cycler – CFX Real-Time System using the FRET channel and contained 50 mM HEPES pH 7.5, 150 mM NaCl, 2 µM DNMT1 (amino acids 621–1616), 5X Sypro Orange (Invitrogen Molecular Probes), 100 µM compound, and 1% DMSO. A DMSO control assay in the absence of compounds was also examined. Temperature was increased from 25 to 95°C by 0.5°C per minute. Fluorescence traces were exported and analyzed by fitting to the Boltzmann equation in Prism to determine the Tm.

[4] = absence of 0.01% Triton X-100, read-out: Percent activity, 0.01% Triton X-100 -
[5] = presence of 0.01% Triton X-100, read-out: Percent activity, 0.01% Triton X-100 +

Row | Compound | vo (initial velocity) [1] | Percent Activity [1] | Normalized RFU [1] | RFU [1] | Initial Velocity (GlaI) | Percent Activity (GlaI) | remaining activity at 5 µM [2, 4] | remaining activity at 5 µM [2, 5] | remaining activity at 20 µM (M.SssI DNMT) | Tm [3] | ∆Tm [3]
1 | O=C(O)C(S)C(S)C(=O)O (stereo not drawn) [Cmpd 51] | 5 ± 1 RFU/min | 9% | 6 | 612 ± 55 RFU | 25 ± 1 RFU/min | 89% | 10% | 8% | 36 ± 7% | 49.0 ± 0.1 ºC | +2.5 ºC
2 | CC(=O)NCCc1ccc(O)c(-c2c(O)c(O)c3c(c2O)C(=O)c2c(cc(O)c(C(=O)O)c2C(=O)O)C3=O)c1 [Cmpd 40, Laccaic acid A] | 6 ± 1 RFU/min | 11% | 5 | 602 ± 4 RFU | 22 ± 3 RFU/min | 79% | 56% | 58% | 82 ± 10% | 48.5 ± 0.1 ºC | +2.0 ºC
3 | O=C1c2ccccc2C(=O)c2c1ccc(O)c2O [Cmpd 26, alizarin] | 27 ± 2 RFU/min | 49% | 37 | 1024 ± 110 RFU | 22 ± 1 RFU/min | 79% | 67% | 63% | 68 ± 11% | 48.5 ± 0.1 ºC | +2.0 ºC
4 | Oc1cc(Cl)ccc1Oc1ccc(Cl)cc1Cl [Cmpd 13, triclosan] | 15 ± 2 RFU/min | 27% | 19 | 779 ± 42 RFU | 28 ± 2 RFU/min |  | 52% | 48% | 25 ± 4% | 47.5 ± 0.1 ºC | +1.0 ºC
5 | CSc1nc2cc(Cl)c(Oc3cccc(Cl)c3Cl)cc2[nH]1 [Cmpd 29, triclabendazole] | 20 ± 2 RFU/min | 36% | 27 | 889 ± 20 RFU | 22 ± 2 RFU/min | 79% | 52% | 46% | 19 ± 6% | 48.3 ± 0.1 ºC | +1.8 ºC
6 | O=c1c(O)c(-c2ccc(O)c(O)c2)oc2c(O)c(O)cc(O)c12 [Cmpd 33] | 25 ± 3 RFU/min | 45% | 46 | 1145 ± 147 RFU | 27 ± 2 RFU/min |  | 53% | 47% | 86 ± 9% | 64.4 ± 0.2 ºC | +17.9 ºC
7 | O=C(O)c1cc(O)c2c(c1)[C@@H]([C@H]1c3cc(C(=O)O)cc(O)c3C(=O)c3c(O[C@H]4O[C@H](CO)[C@@H](O)[C@H](O)[C@H]4O)cccc31)c1cccc(O[C@H]3O[C@H](CO)[C@@H](O)[C@H](O)[C@H]3O)c1C2=O [Cmpd 22] |  | 0% | 7 | 621 ± 12 RFU | 24 ± 1 RFU/min | 86% | 7% | 9% | 20 ± 5% | 47.5 ± 0.1 ºC | +1.0 ºC
8 | O=C(O)c1cc(O)c2c(c1)[C@@H]([C@@H]1c3cc(C(=O)O)cc(O)c3C(=O)c3c(O[C@H]4O[C@H](CO)[C@@H](O)[C@H](O)[C@H]4O)cccc31)c1cccc(O[C@H]3O[C@H](CO)[C@@H](O)[C@H](O)[C@H]3O)c1C2=O [Cmpd 36] |  | 0% | 5 | 591 ± 41 RFU | 28 ± 1 RFU/min |  | 0% | 0% | 40 ± 7% | 47.4 ± 0.1 ºC | +0.9 ºC
9 | CC1/C=C/C=C/C=C/C=C/C=C/C=C/C=C/C(O[C@@H]2O[C@H](C)[C@H](O)[C@@H](O)[C@@H]2N)CC(O)C(C(=O)O)C(O)CC(=O)CC(O)CC(O)CC(O)CC(=O)CCCC(=O)CC(=O)OC1C(C)CC(C)C(O)CC(=O)c1ccc(N)cc1 (stereo partly drawn) [Cmpd 24] | 5 ± 1 RFU/min | 9% | 11 | 677 ± 60 RFU | 27 ± 1 RFU/min |  | 0% | 0% | 49 ± 12% | 47.5 ± 0.1 ºC | +1.0 ºC
